For assay [1], the system named is T1, B. anomalus β-glucosidase (YV396 β-glucosidase).
T1 construct: gene GH3 beta-glucosidase; full gene (2523 bp incl. stop, about 840 residues), codon optimised, pET28-YV396-His6, tag kept, E. coli BL21(DE3), Ni-Sepharose and Superdex 200
As to the kind of experiment: glucose release, GOD-PAP assay at […] nm, Michaelis-Menten fit. The assay is classed as biochemical, Brettanomyces anomalus. The following applies: McIlvaine buffer pH 5.75, 37 °C (optimum of this enzyme); free enzyme; read-out: pH 5.75 37°C / K M.

Assay [2] concerns T2, almond β-glucosidase.
T2 construct: gene GH1 beta-glucosidase
Described as above. The following applies: McIlvaine buffer pH 5.75, 37 °C; commercial preparation; read-out: pH 5.75 37°C / K M. The class given is biochemical, Prunus dulcis.

In the case of `N#C[C@H](O[C@@H]1O[C@H](CO[C@@H]2O[C@H](CO)[C@@H](O)[C@H](O)[C@H]2O)[C@@H](O)[C@H](O)[C@H]1O)c1ccccc1` [amygdalin], the Km in assay [1] was 1 ± 0.05 mM; in assay [2], 10.1 ± 0.13 mM.
Regarding `OC[C@H]1O[C@@H](O[C@H]2[C@H](O)[C@@H](O)C(O)O[C@@H]2CO)[C@H](O)[C@@H](O)[C@@H]1O` (stereo partly drawn) [cellobiose], the Km in assay [1] stood at 15.1 ± 0.73 mM; in assay [2], 0.34 ± 0.08 mM.
In the same order, the values of `OCc1ccccc1O[C@@H]1O[C@H](CO)[C@@H](O)[C@H](O)[C@H]1O` [salicin] are 1.01 ± 0.18 mM and 19.6 ± 2.06 mM.

The values are drawn from publication PMC6680314, “Characterization of the recombinant Brettanomyces anomalus β‐glucosidase and its potential for bioflavouring” (Journal of Applied Microbiology, 2016).
